Where two headings read alike, the source gives them in different places.
What was measured:
[1] = molecular target: T1, isolated recombinant JAK2 kinase domain (Homo sapiens (Human), UniProt O60674); settings: read-out: JAK2 Ki
[2] = system: JAK1-dependent STAT6 phosphorylation downstream of IL-13 stimulation in TF-1 human erythroleukemia cells; test: cells; settings: TF-1, read-out: IL-13-pSTAT6 IC50
[3] = system: JAK1-dependent STAT6 phosphorylation downstream of IL-13 stimulation in BEAS-2B human bronchial epithelial cells; test: cells; settings: read-out: IL13-pSTAT6 BEASB2B IC50
Description: Inhibitor potency (EC50) was determined in cell-based assays designed to measure JAK1 dependent STAT phosphorylation.
Prior to use in the assays, TF-1 cells were starved of GM-CSF overnight in OptiMEM medium (Life Technologies, Grand Island, N.Y.) supplemented with 0.5% charcoal/dextran stripped fetal bovine serum (FBS), 0.1 mM non-essential amino acids (NEAA), and 1 mM sodium pyruvate. The assays were run in 384-well plates in serum-free OptiMEM medium using 300,000 cells per well. In a second assay approach, BEAS-2B human bronchial epithelial cells obtained from ATCC were plated at 100,000 cells per well of a 96-well plate one day prior to the experiment. The BEAS-2B assay was run in complete growth medium (bronchial epithelial basal medium plus bulletkit; Lonza; Basel, Switzerland).
Test compounds were serially diluted 1:2 in DMSO and then diluted 1:50 in medium just before use. Diluted compounds were added to the cells, for a final DMSO concentration of 0.2%, and incubated for 30 min (for the TF-1 assay) or 1 hr (for the BEAS-2B assay) at 37° C. Then, cells were stimulated with human recombinant cytokine at their respective EC90 concentrations, as previously determined for each individual lot. […] The resultant samples were frozen in the plates at −80° C. Compound mediated inhibition of STAT6 phosphorylation was measured in the cell lysates using MesoScale Discovery (MSD) technology (Gaithersburg, Md.).

[4] = molecular target: T1, isolated recombinant JAK2 kinase domain; test: biochemical
[5] = isolated recombinant JAK2 kinase domain, 25 μM ATP

T1 sequence (O60674 849-1124): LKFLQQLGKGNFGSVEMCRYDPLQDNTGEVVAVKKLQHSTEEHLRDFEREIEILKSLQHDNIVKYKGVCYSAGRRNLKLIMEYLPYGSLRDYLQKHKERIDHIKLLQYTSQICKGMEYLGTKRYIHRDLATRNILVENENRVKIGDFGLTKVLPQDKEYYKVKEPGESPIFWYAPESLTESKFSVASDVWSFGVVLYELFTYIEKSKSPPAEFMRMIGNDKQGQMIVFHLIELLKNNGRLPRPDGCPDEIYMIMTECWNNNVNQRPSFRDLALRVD

SMILES	Ki [1, 5] [nM]	IC50 [2] [nM]	IC50 [3] [nM]	Ki [4] [nM]	Ki [1] [nM]
CN1CCC(N(C)C(=O)c2ccc(Nc3nc4c(N5CCC(CC(F)F)(c6ccc(Cl)cc6)CC5)cccn4n3)cc2)CC1 [Example 1-256, 4-([8-[4-(4-chlorophenyl)-4-(2,2-difluoroethyl)piperidin-1-yl]-[1,2,4]triazolo[1,5-a]pyridin-2-yl]amino)-N-methyl-N-(1-methylpiperidin-4-yl)benzamide]	0.69	56.3	426		
CN1CCC(N(C)C(=O)c2ccc(Nc3nc4c(N5CCC(CCC#N)(c6ccc(Cl)cc6)CC5)cccn4n3)cc2)CC1 [Example 1-247, 4-{8-[4-(4-Chloro-phenyl)-4-(2-cyano-ethyl)-piperidin-1-yl]-1,8a-dihydro[1,2,4]triazolo[1,5-a]pyridine-2-ylamino}-N-methyl-N-(1-methyl-piperidin-4-yl)-benzamide]	0.33	18.4	115		
CN1CCC(N(C)C(=O)c2ccc(Nc3nc4c(N5CCC(O)(c6ccccc6)CC5)cccn4n3)cc2)CC1 [Example 1-43, 4-[[8-(4-hydroxy-4-phenyl-1-piperidyl)-[1,2,4]triazolo[1,5-a]pyridin-2-yl]amino]-N-methyl-N-(1-methyl-4-piperidyl)benzamide]	7.84		968		
CN1CCC(N(C)C(=O)c2ccc(Nc3nc4c(N5CCC(C(C)(C)O)CC5)cccn4n3)cc2)CC1 [Example 1-29, 4-[[8-[4-(1-hydroxy-1-methyl-ethyl)-1-piperidyl]-[1,2,4]triazolo[1,5-a]pyridin-2-yl]amino]-N-methyl-N-(1-methyl-4-piperidyl)benzamide]				47.4	
CSc1ccc(C2(CO)CCN(c3cccn4nc(Nc5ccc(C(=O)N(C)C6CCN(C)CC6)cc5)nc34)CC2)cc1 [Example 1-251, 4-([8-[4-(hydroxymethyl)-4-[4-(methylsulfanyl)phenyl]piperidin-1-yl]-[1,2,4]triazolo[1,5-a]pyridin-2-yl]amino)-N-methyl-N-(1-methylpiperidin-4-yl)benzamide]			56.6		0.41
CO/N=C/C1(c2ccc(Cl)cc2)CCN(c2cccn3nc(Nc4ccc(C(=O)N(C)C5CCN(C)CC5)cc4)nc23)CC1 [Example 1-250]	1.29		732		
CN1CCC(N(C)C(=O)c2ccc(Nc3nc4c(N5CCC(O)(c6cccnc6)CC5)cccn4n3)cc2)CC1 [Example 1-19, 4-[[8-[4-hydroxy-4-(3-pyridyl)-1-piperidyl]-[1,2,4]triazolo[1,5-a]pyridin-2-yl]amino]-N-methyl-N-(1-methyl-4-piperidyl)benzamide]				32	
COC(=O)CCN1CCN(C(=O)Cn2cc(Nc3nc4c(N5CCC(CO)(c6ccc(Cl)cc6)CC5)cccn4n3)cn2)CC1 [Example 1-290, Methyl 3-(4-[2-[4-([8-[4-(4-chlorophenyl)-4-(hydroxymethyl)piperidin-1-yl]-[1,2,4]triazolo[1,5-a]pyridin-2-yl]amino)-1H-pyrazol-1-yl]acetyl]piperazin-1-yl)propanoate]	0.3		5.9		
O=C(c1ccc(Nc2nc3c(N4CCC(O)(c5ccc(Cl)cc5)CC4)cccn3n2)cc1)N1CCC(N2CCOCC2)CC1 [Example 1-125, [4-[[8-[4-(4-chlorophenyl)-4-hydroxy-1-piperidyl]-[1,2,4]triazolo[1,5-a]pyridin-2-yl]amino]phenyl]-(4-morpholino-1-piperidyl)methanone]	0.63	16.4	42.8		
CC(=O)NCC1(c2ccc(Cl)cc2)CCN(c2cccn3nc(Nc4ccc(C(=O)N(C)C5CCN(C)CC5)cc4)nc23)CC1 [Example 1-268, 4-([8-[4-(4-chlorophenyl)-4-(acetamidomethyl)piperidin-1-yl]-[1,2,4]triazolo[1,5-a]pyridin-2-yl]amino)-N-methyl-N-(1-methylpiperidin-4-yl)benzamide]	0.38		56.2		
CCOC(=O)CC1(c2ccc(Cl)cc2)CCN(c2cccn3nc(Nc4ccc(C(=O)N(C)C5CCN(C)CC5)cc4)nc23)CC1 [Example 1-254]	0.39	89.9	661		
CN1CCC(N(C)C(=O)c2ccc(Nc3nc4c(N5CCC(CO)(c6ccc(C(F)F)cc6)CC5)cccn4n3)cc2)CC1 [Example 1-267, 4-[(8-[4-[4-(difluoromethyl)phenyl]-4-(hydroxymethyl)piperidin-1-yl]-[1,2,4]triazolo[1,5-a]pyridin-2-yl)amino]-N-methyl-N-(1-methylpiperidin-4-yl)benzamide]			32.4		0.25
CN1CCCC12CN(C(=O)c1ccc(Nc3nc4c(N5CCC(CO)(c6ccc(Cl)cc6)CC5)cccn4n3)cc1)C2 [Example 1-274, [4-[[8-[4-(4-chlorophenyl)-4-(hydroxymethyl)-1-piperidyl]-[1,2,4]triazolo[1,5-a]pyridin-2-yl]amino]phenyl]-(5-methyl-2,5-diazaspiro[3.4]octan-2-yl)methanone]	0.17	7.9	28.9		
CN1CCC(N(C)C(=O)c2ccc(Nc3nc4c(N5CCC(CCO)(c6ccc(Cl)cc6)CC5)cccn4n3)cc2)CC1 [Example 1-255, 4-[[8-[4-(4-chlorophenyl)-4-(2-hydroxyethyl)-1-piperidyl]-[1,2,4]triazolo[1,5-a]pyridin-2-yl]amino]-N-methyl-N-(1-methyl-4-piperidyl)benzamide; formic acid]		27.1	159		
O=C(c1ccc(Nc2nc3c(N4CCC(O)(c5ccc(Cl)cc5)CC4)cccn3n2)cc1)N1CCC(N2CCOCC2)C1 (stereo not drawn) [Example 1-127, [4-[[8-[4-(4-chlorophenyl)-4-hydroxy-1-piperidyl]-[1,2,4]triazolo[1,5-a]pyridin-2-yl]amino]phenyl]-(3-morpholinopyrrolidin-1-yl)methanone]		14.7	24.5		
CN1CCC(N(C)C(=O)c2ccc(Nc3nc4c(N5CCC(CC#N)(c6ccccc6)CC5)cccn4n3)cc2)CC1 [Example 1-41, 4-[[8-[4-(cyanomethyl)-4-phenyl-1-piperidyl]-[1,2,4]triazolo[1,5-a]pyridin-2-yl]amino]-N-methyl-N-(1-methyl-4-piperidyl)benzamide]	0.2	15.9	42		
O=C(NCCc1ccncc1)c1ccc(Nc2nc3c(C4=CCN(C(=O)CCC(F)(F)F)CC4)cccn3n2)cc1 [Example 2-343, N-[2-(4-pyridyl)ethyl]-4-[[8-[1-(4,4,4-trifluorobutanoyl)-3,6-dihydro-2H-pyridin-4-yl]-[1,2,4]triazolo[1,5-a]pyridin-2-yl]amino]benzamide]		4.6	38.3		
CN1CCC(N(C)C(=O)c2ccc(Nc3nc4c(N5CCC(O)(c6ccc(Cl)cc6)CC5)cccn4n3)cc2)CC1 [Example 1-17, 4-[[8-[4-(4-chlorophenyl)-4-hydroxy-1-piperidyl]-[1,2,4]triazolo[1,5-a]pyridin-2-yl]amino]-N-methyl-N-(1-methyl-4-piperidyl)benzamide]		33.9	153		
O=C(NCCc1ccncc1)c1ccc(Nc2nc3c(N4CCC(O)(c5ccc(Cl)cc5)CC4)cccn3n2)cc1 [Example 1-161, 4-[[8-[4-(4-chlorophenyl)-4-hydroxy-1-piperidyl]-[1,2,4]triazolo[1,5-a]pyridin-2-yl]amino]-N-[2-(4-pyridyl)ethyl]benzamide]		23.4	48.5		
CC1CCCN(CCNC(=O)c2ccc(Nc3nc4c(C5=CCN(C(=O)CCC(F)(F)F)CC5)cccn4n3)cc2)C1 (stereo not drawn) [Example 2-101, N-[2-(3-methyl-1-piperidyl)ethyl]-4-[[8-[1-(4,4,4-trifluorobutanoyl)-3,6-dihydro-2H-pyridin-4-yl]-[1,2,4]triazolo[1,5-a]pyridin-2-yl]amino]benzamide]		3.5	31.8		
CC(CN1CCCCC1)NC(=O)c1ccc(Nc2nc3c(C4=CCN(C(=O)CCC(F)(F)F)CC4)cccn3n2)cc1 (stereo not drawn) [Example 2-334, N-[1-methyl-2-(1-piperidyl)ethyl]-4-[[8-[1-(4,4,4-trifluorobutanoyl)-3,6-dihydro-2H-pyridin-4-yl]-[1,2,4]triazolo[1,5-a]pyridin-2-yl]amino]benzamide]		4.3	30.7		
CC(O)C1(c2ccc(Cl)cc2)CCN(c2cccn3nc(Nc4ccc(C(=O)N(C)C5CCN(C)CC5)cc4)nc23)CC1 (stereo not drawn) [Example 1-252, 4-[[8-[4-(4-chlorophenyl)-4-(1-hydroxyethyl)-1-piperidyl]-[1,2,4]triazolo[1,5-a]pyridin-2-yl]amino]-N-methyl-N-(1-methyl-4-piperidyl)benzamide]	0.5		90.2		
CN1CCC(N(C)C(=O)c2ccc(Nc3nc4c(N5CCC(CN)(c6ccc(Cl)cc6)CC5)cccn4n3)cc2)CC1 [Example 1-265, 4-([8-[4-(aminomethyl)-4-(4-chlorophenyl)piperidin-1-yl]-[1,2,4]triazolo[1,5-a]-pyridin-2-yl]amino)-N-methyl-N-(1-methylpiperidin-4-yl)benzamide]	0.57		94.8		
CN1CCCC12CN(C(=O)c1ccc(Nc3nc4c(C5=CCN(C(=O)CCC(F)(F)F)CC5)cccn4n3)cc1)C2 [Example 2-40, 4,4,4-trifluoro-1-[4-[2-[4-(5-methyl-2,5-diazaspiro[3.4]octane-2-carbonyl)anilino]-[1,2,4]triazolo[1,5-a]pyridin-8-yl]-3,6-dihydro-2H-pyridin-1-yl]butan-1-one]		3.5	18.7		
C[C@H]1CN(CCNC(=O)c2ccc(Nc3nc4c(N5CCC(CO)(c6ccc(Cl)cc6)CC5)cccn4n3)cc2)C[C@H](C)O1 [Example 1-277, 4-[[8-[4-(4-chlorophenyl)-4-(hydroxymethyl)-1-piperidyl]-[1,2,4]triazolo[1,5-a]pyridin-2-yl]amino]-N-[2-[(2S,6S)-2,6-dimethylmorpholin-4-yl]ethyl]benzamide]		23.1	73.3		

From patent US9873709B2 (priority 2013, dated 2018)
